Experimental findings from article PMC10641817, “Ligand Sulfur Oxidation State Progressively Alters Galectin-3-Ligand Complex Conformations To Induce Affinity-Influencing Hydrogen Bonds” (Journal of Medicinal Chemistry, 2023) are described below.

The nature of series [1]: solubility in attempts at crystallographic structural analyses. The settings on record: for crystallography with galectin-3C. The format is physicochemical.
Another series has as its target galectin-3 R144S (Homo sapiens, UniProt P17931, R144S). Briefly: competitive fluorescence polarization assay, galectin-3 R144S mutant. The class given is binding. On the procedure: (§1) Fluorescence polarization experiments were carried out either with a POLARStar plate reader and FLUOstar Galaxy software or with a PheraStarFS plate reader and PHERAstar Mars version 2.10 R3 software (BMG, Offenburg, Germany). The dissociation constant (Kd) values were determined in PBS as described earlier.[13],[18] Compounds were dissolved in neat DMSO at 20 mM and diluted in PBS to 3–6 different concentrations to be tested in duplicate. Average Kd values and SEMs were calculated from 2 to 8 single-triple point measurements showing between 20 and 80% inhibition.

The target of a further series is galectin-3 R144K (Homo sapiens, UniProt P17931, R144K). Briefly: competitive fluorescence polarization assay, galectin-3 R144K mutant. The format is binding. The procedure: as §1
The target of a further series is Galectin-3 Wild-Type (Homo sapiens, UniProt P17931). The experiment in a line: competitive fluorescence polarization assay, galectin-3 wild-type. The class given is binding. The procedure: Fluorescence polarization experiments were carried out either with a POLARStar plate reader and FLUOstar Galaxy software or with a PheraStarFS plate reader and PHERAstar Mars version 2.10 R3 software (BMG, Offenburg, Germany). The dissociation constant (Kd) values were determined in PBS as described earlier.[13],[18] Compounds were dissolved in neat DMSO at 20 mM and diluted in PBS to 3–6 different concentrations to be tested in duplicate.

For series [2], the target named is T1, galectin-3C (the C-terminal domain of galectin-3) (Homo sapiens, UniProt P17931).
T1 construct: galectin-3C (the C-terminal domain of galectin-3)
The experiment in a line: isothermal titration calorimetry (ITC) with galectin-3C. The format is binding. The following applies: 301 K. The procedure: Stock solutions of the ligands were prepared in a buffer at 5 mM. The ligands were diluted with buffer to concentrations between 2 and 3 mM. […] All thermograms were integrated using NITPIC, the titration curves were fitted using SEDPHAT with error estimates using the automatic confidence interval search with projection method, and all figures were made in GUSSI.
In general terms: ITC needs no label: the signal is the heat of the interaction.

Each structure is given as a SMILES string. Values joined by “and” are separate entries in the source; they are usually repeats but may differ in a detail not shown here. Equal entries are not always repeated.

T1 sequence (P17931 118-248 limits assumed): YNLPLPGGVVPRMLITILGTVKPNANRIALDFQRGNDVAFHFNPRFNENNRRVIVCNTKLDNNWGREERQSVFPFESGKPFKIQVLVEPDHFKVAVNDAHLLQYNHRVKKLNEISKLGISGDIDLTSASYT
Galectin-3 Wild-Type, sequence (P17931 whole entry): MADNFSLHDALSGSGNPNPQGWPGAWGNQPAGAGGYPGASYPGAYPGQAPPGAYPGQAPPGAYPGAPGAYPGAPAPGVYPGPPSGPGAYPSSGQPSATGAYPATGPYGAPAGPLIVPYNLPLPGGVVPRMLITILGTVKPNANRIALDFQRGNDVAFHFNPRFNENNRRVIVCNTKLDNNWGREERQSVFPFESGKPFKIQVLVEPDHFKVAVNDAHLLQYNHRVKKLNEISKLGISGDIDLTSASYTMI
galectin-3 R144K, sequence (P17931 whole entry R144K): as the sequence (P17931 whole entry) above, with R144K counted along it
galectin-3 R144S, sequence (P17931 whole entry R144S): as the sequence (P17931 whole entry) above, with R144S counted along it

Broadly, the Kd is the concentration at which binding is half-saturated. A high value points to lower affinity. With `Cc1ccc(S[C@@H]2O[C@H](CO)[C@H](O)[C@H](n3cc(S(=O)(=O)c4ccccc4)nn3)[C@H]2O)cc1` [4c, p-Methylphenyl 3-deoxy-3-[4-phenylsulfonyl-1H-1,2,3-triazole-1yl] 1-thio-β-D-galactopyranoside], the solubility result in series [1] is given as “insufficient solubility”. For the same molecule, the dissociation constant Kd at galectin-3 R144S came out at 600 ± 80 µM; at galectin-3 R144K it was 250 ± 6 µM.
In the case of `Cc1ccc(S[C@@H]2O[C@H](CO)[C@H](O)[C@H](n3cc([S+]([O-])c4ccccc4)nn3)[C@H]2O)cc1` (stereo partly drawn) [4b, p-Methylphenyl 3-deoxy-3-[4-phenylsulfinyl-1H-1,2,3-triazole-1yl] 1-thio-β-D-galactopyranoside], the solubility result in series [1] is “insufficient solubility”. The “inhibition at the highest tested concentration” value at Galectin-3 Wild-Type (2 mM, fluorescence polarization, galectin-3) was “b Weak inhibition at the highest tested concentration of 4b (2 mM) did not allow for accurate determination of the Kd value”. For the same molecule, on Galectin-3 Wild-Type (Table 1, galectin-3 wild-type, fluorescence polarization in PBS), the Kd was greater than 600 µM.
Take `[O-][S+](c1ccccc1)c1cn([C@H]2[C@@H](O)[C@@H](CO)O[C@@H](S[C@@H]3O[C@H](CO)[C@@H](O)[C@H](O)[C@H]3O)[C@@H]2O)nn1` (stereo partly drawn) [6b, 3′-Deoxy-3′-[4-phenylsulfinyl-1H-1,2,3-triazol-1-yl] -β-D-galactopyranosyl-1-thio-β-D-glucopyranoside]: in series [2], the dissociation constant (Kd) is 94.2 µM and 94 µM.
Consider `Cc1ccc(S[C@@H]2O[C@H](CO)[C@H](O)[C@H](n3cc(Sc4ccccc4)nn3)[C@H]2O)cc1` [4a, p-Methylphenyl 3-deoxy-3-[4-phenylsulfane-1H-1,2,3-triazol-1-yl] 1-thio-β-D-galactopyranoside], for which the solubility entry in series [1] was “insufficient solubility”.
